Publication PMC3484517 (The Korean Journal of Physiology & Pharmacology : Official …, 2012)
Like-named read-outs stand apart in the source and are kept apart here.

Tests used:
[1] = biological target: hERG K+ channel (IKr) (Homo sapiens, UniProt Q12809); assay: whole-cell patch clamp of hERG; type: cell-based; conditions: human, HEK293 cells transiently transfected with hERG, pH 7.4
[2] = biological target: hERG K+ channel (Homo sapiens, UniProt Q12809); assay: whole-cell patch clamp of hERG; type: cell-based
Chain of hERG K+ channel (Q12809 whole entry): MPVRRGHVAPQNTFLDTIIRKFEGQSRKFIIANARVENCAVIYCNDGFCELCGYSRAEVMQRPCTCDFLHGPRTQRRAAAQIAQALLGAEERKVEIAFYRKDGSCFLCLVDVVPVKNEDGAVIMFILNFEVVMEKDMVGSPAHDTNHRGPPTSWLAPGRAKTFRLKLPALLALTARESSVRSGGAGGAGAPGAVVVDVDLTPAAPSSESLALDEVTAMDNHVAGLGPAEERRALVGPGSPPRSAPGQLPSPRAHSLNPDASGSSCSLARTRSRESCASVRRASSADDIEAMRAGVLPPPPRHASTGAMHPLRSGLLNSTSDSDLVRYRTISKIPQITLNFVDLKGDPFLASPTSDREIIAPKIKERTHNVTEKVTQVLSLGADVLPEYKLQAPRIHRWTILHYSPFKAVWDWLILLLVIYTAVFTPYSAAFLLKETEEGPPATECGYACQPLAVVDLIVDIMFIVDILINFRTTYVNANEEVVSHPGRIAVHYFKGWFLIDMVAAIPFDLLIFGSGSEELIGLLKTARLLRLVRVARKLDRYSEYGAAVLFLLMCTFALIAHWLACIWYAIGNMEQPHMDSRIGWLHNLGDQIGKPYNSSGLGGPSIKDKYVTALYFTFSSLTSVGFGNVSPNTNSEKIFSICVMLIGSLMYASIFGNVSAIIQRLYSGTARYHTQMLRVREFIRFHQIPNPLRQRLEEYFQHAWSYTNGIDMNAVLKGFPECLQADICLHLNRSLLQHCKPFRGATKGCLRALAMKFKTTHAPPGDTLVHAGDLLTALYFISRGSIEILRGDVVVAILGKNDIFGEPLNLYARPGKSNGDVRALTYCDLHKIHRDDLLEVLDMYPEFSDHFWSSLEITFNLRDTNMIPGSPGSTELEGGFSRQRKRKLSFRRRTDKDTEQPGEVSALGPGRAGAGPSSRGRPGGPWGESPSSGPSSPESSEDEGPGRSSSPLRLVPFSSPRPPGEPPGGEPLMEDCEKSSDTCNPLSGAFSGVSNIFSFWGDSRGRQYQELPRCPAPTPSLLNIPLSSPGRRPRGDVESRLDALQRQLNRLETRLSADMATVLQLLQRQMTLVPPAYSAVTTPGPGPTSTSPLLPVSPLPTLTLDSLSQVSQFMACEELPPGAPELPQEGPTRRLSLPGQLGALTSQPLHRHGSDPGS

[3] = tested on: ECG intervals (RR, PR, QRS, QT); conditions: adult outpatient population (n=1,048); cited from earlier work
[4] = tested on: isolated guinea-pig atria; conditions: spontaneously beating isolated guinea-pig atria; cited from earlier work
[5] = biological target: T1, KCNJ2 (IK1) (Homo sapiens, UniProt P63252); assay: whole-cell patch clamp of IK1 in KCNJ2-transfected HEK293 cells; type: cell-based
T1 sequence (P63252 1-427): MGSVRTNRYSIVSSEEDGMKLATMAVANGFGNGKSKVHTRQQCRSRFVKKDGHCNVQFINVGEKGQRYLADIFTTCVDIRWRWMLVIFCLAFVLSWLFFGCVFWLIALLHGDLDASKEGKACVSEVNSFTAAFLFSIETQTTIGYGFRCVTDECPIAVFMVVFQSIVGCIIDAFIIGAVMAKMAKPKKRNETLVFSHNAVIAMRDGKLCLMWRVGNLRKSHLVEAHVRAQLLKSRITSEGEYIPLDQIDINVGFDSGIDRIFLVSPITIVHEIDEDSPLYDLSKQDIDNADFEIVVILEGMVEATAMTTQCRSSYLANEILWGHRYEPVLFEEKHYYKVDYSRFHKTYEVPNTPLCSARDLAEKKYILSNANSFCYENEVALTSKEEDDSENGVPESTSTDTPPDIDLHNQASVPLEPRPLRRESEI

[6] = biological target: KCNQ1/KCNE1 (IKs) (Homo sapiens, UniProt P51787); assay: whole-cell patch clamp of IKs in KCNQ1/KCNE1-cotransfected HEK293 cells; type: cell-based
Chain of KCNQ1/KCNE1 (IKs) (P51787 whole entry): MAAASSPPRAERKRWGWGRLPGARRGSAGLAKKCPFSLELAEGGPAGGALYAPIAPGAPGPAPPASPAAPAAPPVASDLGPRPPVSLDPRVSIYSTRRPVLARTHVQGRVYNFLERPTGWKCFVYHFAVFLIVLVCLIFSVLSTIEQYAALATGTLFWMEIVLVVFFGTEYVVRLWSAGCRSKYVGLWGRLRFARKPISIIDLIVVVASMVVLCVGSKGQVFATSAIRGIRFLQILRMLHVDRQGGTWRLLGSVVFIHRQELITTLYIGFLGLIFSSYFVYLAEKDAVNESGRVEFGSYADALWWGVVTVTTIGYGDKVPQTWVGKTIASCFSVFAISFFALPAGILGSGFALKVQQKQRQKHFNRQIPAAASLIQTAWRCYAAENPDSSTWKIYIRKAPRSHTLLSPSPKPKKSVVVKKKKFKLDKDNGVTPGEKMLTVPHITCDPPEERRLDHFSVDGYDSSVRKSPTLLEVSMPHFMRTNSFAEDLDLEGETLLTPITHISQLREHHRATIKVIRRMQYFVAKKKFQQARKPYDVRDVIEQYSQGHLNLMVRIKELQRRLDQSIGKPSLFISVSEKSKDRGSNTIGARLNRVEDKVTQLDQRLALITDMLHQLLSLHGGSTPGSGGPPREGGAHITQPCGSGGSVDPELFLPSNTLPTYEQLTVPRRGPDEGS

Chain of hERG K+ channel (IKr) (Q12809 whole entry): as the sequence (Q12809 whole entry) above

IC50 [5]: 10.5 µM | reduction of IK1 amplitude ([5]; 1 µM sertraline, n=4): 0.7±2.7% | reduction of IK1 amplitude ([5]; 3 µM sertraline, n=4): 9.4±1.1% | reduction of IK1 amplitude ([5]; 10 µM sertraline, n=4): 45.7±3.9% | reduction of IK1 amplitude ([5]; 30 µM sertraline, n=4): 92.5± 1.2% | Hill coefficient, IK1 inhibition ([5]; KCNJ2 HEK293 cells, n=4): 2.1±0.2 | IC50 [6]: 12.3 ± 1.3 µM | reduction of IKs amplitude ([6]; 1 µM sertraline, n=4): 1.5±3.8% | reduction of IKs amplitude ([6]; 3 µM sertraline, n=4): 10.3±2.5% | reduction of IKs amplitude ([6]; 10 µM sertraline, n=4): 36.6±3.5% | reduction of IKs amplitude ([6]; 30 µM sertraline, n=4): 84.0±5.6% | Hill coefficient, IKs inhibition ([6]; KCNQ1/KCNE1 HEK293 cells, n=4): 2.5±0.1 | IC50 ([6]; human, HEK293 cells transiently cotransfected with KCNQ1/KCNE1, pH 7.4): 15.2 µM
SMILES: CN[C@H]1CC[C@@H](c2ccc(Cl)c(Cl)c2)c2ccccc21 [Sertraline]
inhibition at 1 µM [1]: 7.9 ± 1.9% | inhibition at 3 µM [1]: 24.2 ± 1.9% | inhibition at 10 µM [1]: 60.1 ± 2.7% | inhibition at 30 µM [1]: 86.4 ± 1.4% | IC50 [2]: 0.7 µM | Hill coefficient, hERG current inhibition ([2]; HEK293 cells, Hill fit, n=4): 1.3±0.02 | effect on RR, PR, QRS, and QT intervals [3]: no significant effect | effect on rate of contractions and contractile force [4]: dose-dependent decrease in the rate contractions and in the contractile force
